Patent publication US9271994B2, “Compositions and methods related to calcitriol” (VDF Futureceuticals, Inc., priority 2009, dated 2016)

Key:
Type in all cases: in vivo
blood calcitriol = assay: Blood/serum calcitriol after single oral dose in human volunteers (radioimmuno assay)
Experimental: (§1) In a typical example, five subjects were administered a single dosage of 552 mg calcium fructoborate upon informed consent, and blood was drawn immediately prior to administration and after 30, 60, 90, and 120 minutes. Calcitriol was measured using a standard radioimmuno assay from a commercial lab starting from 4 ml whole blood (numerous alternative methods are also deemed suitable, including those described in U.S. Pat. Nos. 4,585,741, 5,202,266, and 6,455,714). From each sample and for each time point, concentrations of calcidiol and calcitriol in serum were measured and the data are shown in FIGS. 1A to 1D. FIG. 1A depicts the effect of oral administration of calcium fructoborate on blood calcitriol 30 minutes after oral administration, FIG. 1B depicts the effect of oral administration of calcium fructoborate on blood calcitriol 60 minutes after oral administration, and FIG. 1C depicts the effect of oral administration of calcium fructoborate on blood calcitriol 90 minutes after oral administration. FIG. 1D depicts the effect of oral administration of calcium fructoborate on blood calcitriol 90-120 minutes after oral administration.
FIGS. 2A and 2B depict a graphic illustration of the results from this study where the biphasic mode of modulation of calcitriol is clearly seen between times 0-90 minutes (decrease) and 90-120 minutes (increase). In most cases, it is expected that the so increased calcitriol level will drop back to starting levels within 6 hours or less, and more typically within 4 hours, or less (data not shown). FIG. 3 depicts another graphic representation in which the exclusive modulation of calcitriol versus calcidiol is shown.
While not wishing to be bound by any theory or hypothesis, the inventors contemplate that the compounds according to the inventive subject matter increase serum concentration of calcitriol in a bi-modal manner. During the first 60 minutes, a moderate increase is observed in the case of subjects with low initial level of calcitriol (<30 pg/ml), but not in subjects with initial level >30 pg/ml. […]

calcidiol = assay: Serum calcidiol after single oral dose in human volunteers; settings: single oral dosage of 552 mg, five subjects, 30-120 minutes after administration
Experimental: as §1

[1] = system: serum calcium, serum phosphate, parathyroid hormone, calcitonin; assay: Serum calcium, phosphate, parathyroid hormone and calcitonin upon administration; settings: about 550 mg; data not shown
[2] = Intact Ca-Fructoborate in serum of orally treated fasted mice by LC-MS; settings: oral gavage 600 mcg/mouse; for Intact Ca-fructoborate in serum: fasted mice
Experimental: Using LC-MS, Ca-Fructoborate was detected and measured from serum samples at concentrations as low as 0.2 ppm and higher. This method was used to analyze the presence and amount of Ca-Fructoborate in serum collected from mice treated orally (gavage) with Ca-Fructoborate in liquid at dose 600 mcg/mouse for 30 and 60 minutes.
Detection of intact Ca-Fructoborate in sera collected from fasted mice treated orally with the compound for 30 or 60 minutes. Collected sera were diluted in running buffer and filtered through 0.45 PVDF filter. This solution was analyzed by LCMS for Ca-Fructoborate as the fructoborate anion.

calcium fructoborate
modulation of calcitriol between times 0-90 minutes (blood calcitriol; single oral 552 mg, 0-90 minutes): decrease | modulation of calcitriol between times 90-120 minutes (blood calcitriol; single oral 552 mg, 90-120 minutes): increase | calcitriol serum concentration (blood calcitriol; single oral dosage of 552 mg, five subjects, 30-120 minutes after administration): significantly and acutely affected | calcidiol concentration (calcidiol): remained unaffected | change of serum calcium concentration [1]: 5-15% | change of serum concentration of calcitonin [1]: 10-30% | change of serum concentration of parathyroid hormone [1]: 10-30% | change of serum phosphate concentration [1]: 5-15% | Intact Ca-fructoborate in serum ([2]; 30 minutes): 449 µg/mL | Intact Ca-fructoborate in serum ([2]; 60 minutes): 556 µg/mL | bioavailability of the compound ([2]; mice (20 g by average)): 556 mcg/ml of serum | delivery from intestine to bloodstream ([2]; mice, 30 and 60 minutes): in intact form and in time-dependent manner
